Measured values reported in US20030045679A1, “Calcineurin modulators” (priority 2001, published 2003).
Read-outs that look alike come from different tables or passages of the source.

Experiments:
[1] = Cytotoxicity of A23187 and hydrogen peroxide on stable transfectants, propidium iodide uptake by flow cytometry; conditions: Chinese hamster, Percent cytotoxicity, 4 μg/ml A23187
Protocol: (§1) MATERIAL AND METHODS: Cell culture and treatment conditions. Chinese hamster HA-1 fibroblasts were maintained in Eagle's minimal essential medium supplemented with 8% heat inactivated fetal bovine serum, penicillin (100 units/ml) and streptomycin (100μg/ml). Cultures were grown in a humidified incubator atmosphere of 95% air and 5% CO2 at 37 °C.
(§2) Stress analyses. Control cells and lines 7, 10, and 15 were grown to log phase and equal confluency (75%). At this time, the cells were exposed to each stress agent and cytotoxicity measured. For the oxidative stress studies, a stock solution of hydrogen peroxide (30% w/w) was diluted in phosphate-buffered saline just prior to cell exposure. At the time of treatment, the HA-1 cultures were taken from the incubator and freshly diluted-peroxide added to the culture dishes. The cells were then returned to the incubator for the appropriate times.
(§3) Stable adapt78-overexpressing, vector control and non-transfected control HA-1 cells were exposed to 4 μg/ml calcium ionophore A23187 or […] for 60 minutes (A23187) or 90 minutes (hydrogen peroxide). Cytotoxicity was then determined by propidium iodide uptake using flow cytometry as follows. After treatment, monolayers were rinsed with PBS containing 3 mM EDTA, then covered with the same for 5 minutes at room temperature before suspending cells by gentle trituration. Cytotoxicity was then measured using propidium iodide and the stained cells analyzed by flow cytometry using a Becton Dickinson FAC Scan. The ModFit analytical software program was used to quantify the percentage of cytotoxicity.
(§4) Control cells and lines 7, 10, and 15 were grown to log phase and equal confluency (75%), then treated with 4 μg/ml A23187 and separately, 5 mM hydrogen peroxide. Cytotoxicity was then assessed by propidium iodide uptake using flow cytometry. Fold protection was calculated as the percent viability of cells compared with untransfected after subtracting out background (cells treated with solvent only). The average of untransfected percent viability was arbitrarily set at 1.0.

[2] = tested on: HA-1 cells; assay: as above; conditions: n = 4
Protocol: as §1, §2, §3, §4

[3] = tested on: HA-1 cells; conditions: stained 7 days later, cited from earlier work
[4] = tested on: HA-1 cells; conditions: 160 μM hydrogen peroxide; cited from earlier work

| SMILES | cytotoxicity at 60 min, 4 μg/ml ([1]; Untransfected HA-1 cells) [%] | cytotoxicity at 60 min, 4 μg/ml ([1]; Vector transfected HA-1 cells) [%] | cytotoxicity at 60 min, 4 μg/ml ([1]; adapt78 overexpressing Clone 7) [%] | cytotoxicity at 60 min, 4 μg/ml ([1]; adapt78 overexpressing Clone 10) [%] | cytotoxicity at 60 min, 4 μg/ml ([1]; adapt78 overexpressing Clone 15) [%] | Fold protection +/− 1 S.D. ([2]; 4 μg/ml A23187, Clone 7 vs Untransfected) | Fold protection +/− 1 S.D. ([2]; 4 μg/ml A23187, Clone 10 vs Untransfected) | Fold protection +/− 1 S.D. ([2]; 4 μg/ml A23187, Clone 15 vs Untransfected) | Fold protection +/− 1 S.D. ([2]; 4 μg/ml A23187, Untransfected HA-1 cells (set at 1.0)) | Fold protection +/− 1 S.D. ([2]; 4 μg/ml A23187, Vector transfected HA-1 cells vs Untransfected) | Fold protection +/− 1 S.D. ([2]; 5 mM hydrogen peroxide, Clone 10 vs Untransfected) | Fold protection +/− 1 S.D. ([2]; 5 mM hydrogen peroxide, Clone 15 vs Untransfected) | Fold protection +/− 1 S.D. ([2]; 5 mM hydrogen peroxide, Untransfected HA-1 cells (set at 1.0)) | Fold protection +/− 1 S.D. ([2]; 5 mM hydrogen peroxide, Vector transfected HA-1 cells vs Untransfected) | decrease in colony number compared with control ([3]; 160 μM hydrogen peroxide for 5 hours) [%] | decrease in colony number compared with control ([3]; 400 μM hydrogen peroxide for 5 hours) [%] | cytotoxicity using trypan blue exclusion [4] |
| --- | --- | --- | --- | --- | --- | --- | --- | --- | --- | --- | --- | --- | --- | --- | --- | --- | --- |
| CNc1ccc2oc(C[C@H]3O[C@@]4(CC[C@H]3C)O[C@H]([C@H](C)C(=O)c3ccc[nH]3)[C@H](C)C[C@H]4C)nc2c1C(=O)O [A23187] | 48.2 | 44 | 10.1 | 11.7 | 11.8 | 4.8 +/− 0.5 fold | 4.1 +/− 1.0 fold | 4.1 +/− 0.3 fold | 1.0 +/− 0.4 fold | 1.1 +/− 0.3 fold |  |  |  |  |  |  |  |
| OO [Peroxide, hydrogen peroxide] |  |  |  |  |  |  |  |  |  |  | 3.7 +/− 0.6 fold | 4.2 +/− 0.6 fold | 1.0 +/− 0.3 fold | 1.0 +/− 0.4 fold | 79.5 | 97.8 | no associated cytotoxicity was observed |
